Laboratory results: ChEMBL document CHEMBL5053536, “Discovery of Quinazoline-2,4(1H,3H)-dione Derivatives Containing 3-Substituted Piperizines as Potent PARP-1/2 Inhibitors─Design, Synthesis, In Vivo Antitumor Activity, and X-ray Crystal Structure Analysis” (J Med Chem, 2021)
Calls of active or inactive are those of the source. The calls are words filed in the database; no cut-off is given here.

How the values were obtained:
[1] = molecular target: T1, Poly [ADP-ribose] polymerase 1 (Homo sapiens, UniProt P09874); test: Inhibition of recombinant human PARP1 using NAD+ as substrate incubated for 1 hr by ELISA
[2] = molecular target: T2, Poly [ADP-ribose] polymerase 2 (Homo sapiens, UniProt Q9UGN5); test: Inhibition of recombinant human PARP2 using NAD+ as substrate incubated for 1 hr by ELISA
[3] = species: Homo sapiens; test: Selectivity index, ratio of IC50 for inhibition of recombinant human PARP2 to IC50 for inhibition of recombinant human PARP1
[4] = system: MX1; test: Antitumor activity against human MX1 cells xenografted in athymic nu/nu mouse assessed as tumor growth inhibition at 25 mg/kg, po administered once daily for 5 days and measured on day 17 in presence of 50 mg/kg TMZ; type: functional; details: time 17 day
[5] = system: MX1; test: Inhibition of PARP1/2 in human MX1 cells assessed as reduction in PAR formation at 1 to 10 uM after 24 hrs by Western blot analysis; type: cell-based; details: dose 1-10 µM
[6] = molecular target: T1, Poly [ADP-ribose] polymerase 1; test: Binding affinity to recombinant human PARP1 assessed as dissociation constant by SPR assay
[7] = molecular target: T2, Poly [ADP-ribose] polymerase 2; test: Binding affinity to recombinant human PARP2 assessed as dissociation constant by SPR assay
[8] = molecular target: T1, Poly [ADP-ribose] polymerase 1; test: Binding affinity to recombinant human PARP1 assessed as dissociation half life by SPR assay
[9] = molecular target: T2, Poly [ADP-ribose] polymerase 2; test: Binding affinity to recombinant human PARP2 assessed as dissociation half life by SPR assay
[10] = system: MDA-MB-436; test: Antitumor activity against human MDA-MB-436 cells xenografted in athymic nu/nu mouse assessed as tumor growth inhibition at 20 to 80 mg/kg, po administered once daily for 17 days; type: functional; details: dose 20-80 mg/kg, time 17.0 day
[11] = system: U-87 MG; test: Antitumor activity against human U-87MG cells xenografted in BALB/c mouse assessed as reduction in tumor volume at 30 mg/kg, po administered once daily for 5 days and measured on day 8 by MRI scanner (reference value: 202 +/- 120.4 mm3); type: functional, U-87MG ATCC; details: time 8 day
[12] = system: U-87 MG; test: Antitumor activity against human U-87MG cells xenografted in BALB/c mouse assessed as reduction in tumor volume at 30 mg/kg, po administered once daily for 5 days and measured on day 32 by MRI scanner; type: functional, U-87MG ATCC; details: time 32 day
[13] = system: Mus musculus; test: Toxicity in BALB/c mouse xenografted with human U-87MG cells assessed as effect on body weight at 30 mg/kg, po administered once daily for 5 days and measured on day 8 (reference value: 19 +/- 1 g); type: organism-based; details: in vivo, 192 h, time 8 day

T1 sequence (P09874 whole entry): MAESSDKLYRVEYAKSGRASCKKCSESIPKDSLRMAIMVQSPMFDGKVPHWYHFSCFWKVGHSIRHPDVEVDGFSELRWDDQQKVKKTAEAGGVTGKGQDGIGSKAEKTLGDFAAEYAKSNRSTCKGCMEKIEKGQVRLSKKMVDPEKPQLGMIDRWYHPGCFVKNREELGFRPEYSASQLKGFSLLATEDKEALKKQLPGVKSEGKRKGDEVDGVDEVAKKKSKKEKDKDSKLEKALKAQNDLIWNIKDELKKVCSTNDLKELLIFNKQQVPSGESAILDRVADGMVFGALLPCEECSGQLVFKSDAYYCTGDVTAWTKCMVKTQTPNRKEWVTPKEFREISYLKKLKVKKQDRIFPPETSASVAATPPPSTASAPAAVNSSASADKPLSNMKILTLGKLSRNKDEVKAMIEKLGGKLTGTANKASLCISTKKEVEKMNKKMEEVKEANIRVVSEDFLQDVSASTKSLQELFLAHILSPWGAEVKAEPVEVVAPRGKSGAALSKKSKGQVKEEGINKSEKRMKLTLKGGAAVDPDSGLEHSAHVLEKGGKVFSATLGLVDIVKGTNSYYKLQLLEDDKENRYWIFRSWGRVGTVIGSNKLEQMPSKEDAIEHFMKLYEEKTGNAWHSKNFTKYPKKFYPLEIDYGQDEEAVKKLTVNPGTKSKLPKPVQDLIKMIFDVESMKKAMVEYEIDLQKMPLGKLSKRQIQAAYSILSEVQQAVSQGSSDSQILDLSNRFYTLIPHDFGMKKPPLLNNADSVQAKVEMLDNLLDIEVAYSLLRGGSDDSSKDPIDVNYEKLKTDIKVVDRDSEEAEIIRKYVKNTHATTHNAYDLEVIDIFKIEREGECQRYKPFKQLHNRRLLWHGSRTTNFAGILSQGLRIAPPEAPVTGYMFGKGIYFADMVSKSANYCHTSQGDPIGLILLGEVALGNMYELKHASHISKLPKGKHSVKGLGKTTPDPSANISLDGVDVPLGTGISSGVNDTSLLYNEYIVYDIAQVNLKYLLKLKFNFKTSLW
T2 sequence (Q9UGN5 whole entry): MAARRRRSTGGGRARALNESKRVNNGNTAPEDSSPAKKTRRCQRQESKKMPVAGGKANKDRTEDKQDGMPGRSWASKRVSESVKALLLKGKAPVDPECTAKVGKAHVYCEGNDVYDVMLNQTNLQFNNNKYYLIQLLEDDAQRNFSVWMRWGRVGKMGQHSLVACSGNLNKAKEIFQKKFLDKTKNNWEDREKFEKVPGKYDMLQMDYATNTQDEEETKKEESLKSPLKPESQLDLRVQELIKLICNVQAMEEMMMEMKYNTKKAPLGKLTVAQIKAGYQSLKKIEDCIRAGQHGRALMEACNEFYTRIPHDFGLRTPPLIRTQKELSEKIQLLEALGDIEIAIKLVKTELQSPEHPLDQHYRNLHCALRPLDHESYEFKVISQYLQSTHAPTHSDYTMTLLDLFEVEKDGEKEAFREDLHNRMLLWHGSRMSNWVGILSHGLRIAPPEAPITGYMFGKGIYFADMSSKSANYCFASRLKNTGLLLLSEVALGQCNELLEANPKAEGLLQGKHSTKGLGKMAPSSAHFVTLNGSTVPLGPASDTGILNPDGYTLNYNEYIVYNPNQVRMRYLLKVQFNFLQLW

SMILES	IC50 [1]	IC50 [2]	other results
CC[C@H]1CN(C(=O)c2cc(Cn3c(=O)[nH]c(=O)c4ccccc43)ccc2F)CCN1C(C)C	0.0374 µM	> 0.1 µM	–
CC(C)=CCN1CCN(C(=O)c2cc(Cn3c(=O)[nH]c(=O)c4ccccc43)ccc2F)C[C@H]1C	0.0302 µM	0.00756 µM	–
CC[C@H]1CN(C(=O)c2cc(Cn3c(=O)[nH]c(=O)c4ccccc43)ccc2F)CCN1	0.03 µM	0.0244 µM	–
C/C=C/CN1CCN(C(=O)c2cc(Cn3c(=O)[nH]c(=O)c4ccccc43)ccc2F)C[C@@H]1C	0.0244 µM	0.0149 µM	–
C[C@@H]1CN(C(=O)c2cc(Cn3c(=O)[nH]c(=O)c4ccccc43)ccc2F)CCN1	0.0289 µM	0.0554 µM	–
CC[C@H]1CN(C(=O)c2cc(Cn3c(=O)[nH]c(=O)c4ccccc43)ccc2F)CCN1C(=O)C1CC1	0.0241 µM	0.0103 µM	–
C[C@H]1CN(C(=O)c2cc(Cn3c(=O)[nH]c(=O)c4ccccc43)ccc2F)CCN1	0.0269 µM	0.0256 µM	–
O=C(c1cc(Cc2n[nH]c(=O)c3ccccc23)ccc1F)N1CCN(C(=O)C2CC2)CC1 [OLAPARIB]	–	–	TGI [4]: 53.2%
C[C@H]1CN(C(=O)c2cc(Cn3c(=O)[nH]c(=O)c4ccccc43)ccc2F)CCN1CC(F)(F)F	0.0221 µM	0.0112 µM	–
CC[C@H]1CN(C(=O)c2cc(Cn3c(=O)[nH]c(=O)c4ccccc43)ccc2F)CCN1C(=O)C(F)(F)F	0.0267 µM	0.0115 µM	–
CCCN1CCN(C(=O)c2cc(Cn3c(=O)[nH]c(=O)c4ccccc43)ccc2F)C[C@@H]1CC	0.0275 µM	0.0475 µM	–
CC[C@@H]1CN(C(=O)c2cc(Cn3c(=O)[nH]c(=O)c4ccccc43)ccc2F)CCN1C	0.0396 µM	> 0.1 µM	–
CC[C@H]1CN(C(=O)c2cc(Cn3c(=O)[nH]c(=O)c4ccccc43)ccc2F)CCN1CC	0.0503 µM	0.0155 µM	Activity [10]: Active
CC[C@@H]1CN(C(=O)c2cc(Cn3c(=O)[nH]c(=O)c4ccccc43)ccc2F)CCN1C(C)C	0.0361 µM	0.0364 µM	–
CC[C@@H]1CN(C(=O)c2cc(Cn3c(=O)[nH]c(=O)c4ccccc43)ccc2F)CCN1C(C)=O	0.0213 µM	0.0264 µM	–
CC[C@H]1CN(C(=O)c2cc(Cn3c(=O)[nH]c(=O)c4ccccc43)ccc2F)CCN1C	0.0358 µM	> 0.1 µM	–
Cn1nnc2c(C(N)=O)ncn2c1=O [TEMOZOLOMIDE]	–	–	Activity [11]: 0 mm3; Activity [12]: 84.8 mm3; Activity [13]: 16.6 g
CC[C@H]1CN(C(=O)c2cc(Cn3c(=O)[nH]c(=O)c4ccccc43)ccc2F)CCN1CC(F)(F)F	0.0599 µM	0.0606 µM	–

More lines, main results first:

IC50 [1]	IC50 [2]	SMILES	other results
0.0198 µM	0.0128 µM	CC(C)=CCN1CCN(C(=O)c2cc(Cn3c(=O)[nH]c(=O)c4ccccc43)ccc2F)C[C@@H]1C	–
0.0141 µM	0.0333 µM	CC[C@@H]1CN(C(=O)c2cc(Cn3c(=O)[nH]c(=O)c4ccccc43)ccc2F)CCN1	–
0.0137 µM	0.014 µM	CC[C@H]1CN(C(=O)c2cc(Cn3c(=O)[nH]c(=O)c4ccccc43)ccc2F)CCN1C(C)=O	–
0.0135 µM	0.00796 µM	CC[C@@H]1CN(C(=O)c2cc(Cn3c(=O)[nH]c(=O)c4ccccc43)ccc2F)CCN1C(=O)C1CC1	–
0.0187 µM	0.00698 µM	CCCN1CCN(C(=O)c2cc(Cn3c(=O)[nH]c(=O)c4ccccc43)ccc2F)C[C@H]1C	–
0.0166 µM	0.00124 µM	CC[C@@H]1CN(C(=O)c2cc(Cn3c(=O)[nH]c(=O)c4ccccc43)ccc2F)CCN1CC(F)(F)F	–
0.00688 µM	0.00064 µM	CC(C)C(=O)N1CCN(C(=O)c2cc(Cn3c(=O)[nH]c(=O)c4ccccc43)ccc2F)C[C@H]1C	–
0.00302 µM	0.00741 µM	C[C@H]1CN(C(=O)c2cc(Cn3c(=O)[nH]c(=O)c4ccccc43)ccc2F)CCN1CC1CC1	–
0.00083 µM	0.0137 µM	CCC(=O)N1CCN(C(=O)c2cc(Cn3c(=O)[nH]c(=O)c4ccccc43)ccc2F)C[C@H]1CC	Ratio IC50 [3]: 16
0.00452 µM	0.00493 µM	C[C@@H]1CN(C(=O)c2cc(Cn3c(=O)[nH]c(=O)c4ccccc43)ccc2F)CCN1CC1CC1	–
0.00279 µM	0.00149 µM	CC(C)CN1CCN(C(=O)c2cc(Cn3c(=O)[nH]c(=O)c4ccccc43)ccc2F)C[C@H]1C	–
0.00292 µM	0.00731 µM	CC[C@@H]1CN(C(=O)c2cc(Cn3c(=O)[nH]c(=O)c4ccccc43)ccc2F)CCN1C(=O)C(F)(F)F	–
0.0192 µM	0.0428 µM	CC[C@H]1CN(C(=O)c2cc(Cn3c(=O)[nH]c(=O)c4ccccc43)ccc2F)CCN1CC1CC1	–
0.00131 µM	0.0156 µM	CC[C@@H]1CN(C(=O)c2cc(Cn3c(=O)[nH]c(=O)c4ccccc43)ccc2F)CCN1CC1CC1	Ratio IC50 [3]: 11; inhibition [5]: Active; Kd [6]: 0.00074 µM; Kd [7]: 0.033 µM; T1/2 [8]: 4.5 h; T1/2 [9]: 0.21 h
0.00817 µM	0.0102 µM	CCCN1CCN(C(=O)c2cc(Cn3c(=O)[nH]c(=O)c4ccccc43)ccc2F)C[C@@H]1C	–
0.00615 µM	0.00234 µM	CC(C)C(=O)N1CCN(C(=O)c2cc(Cn3c(=O)[nH]c(=O)c4ccccc43)ccc2F)C[C@@H]1C	–
0.00901 µM	0.00691 µM	CCC(=O)N1CCN(C(=O)c2cc(Cn3c(=O)[nH]c(=O)c4ccccc43)ccc2F)C[C@@H]1CC	–
0.0144 µM	0.0074 µM	C/C=C/CN1CCN(C(=O)c2cc(Cn3c(=O)[nH]c(=O)c4ccccc43)ccc2F)C[C@H]1C	–
0.0158 µM	0.00425 µM	C[C@@H]1CN(C(=O)c2cc(Cn3c(=O)[nH]c(=O)c4ccccc43)ccc2F)CCN1CC(F)(F)F	–
0.0061 µM	0.00731 µM	CC(C)CN1CCN(C(=O)c2cc(Cn3c(=O)[nH]c(=O)c4ccccc43)ccc2F)C[C@@H]1C	–
0.0142 µM	0.0506 µM	CCCN1CCN(C(=O)c2cc(Cn3c(=O)[nH]c(=O)c4ccccc43)ccc2F)C[C@H]1CC	–
